In paper doi:10.1101/2022.08.09.502705v1 (biorxiv, 2022):

Columns and labels:
hSERT = hSERT (Homo sapiens, UniProt P31645, K490T); assay: cell-based
iFluoxSnFR [1] = assay: isothermal titration calorimetry; type: binding; conditions: 3x PBS pH […] °C
iFluoxSnFR [2] = assay: fluorescence concentration-response of purified biosensor; type: binding; conditions: purified protein
iEscSnFR [3] = assay: as above; type: binding; conditions: purified protein
iEscSnFR [4] = assay: isothermal titration calorimetry; type: binding; conditions: 3x PBS pH […] °C

hSERT, sequence (P31645 whole entry K490T): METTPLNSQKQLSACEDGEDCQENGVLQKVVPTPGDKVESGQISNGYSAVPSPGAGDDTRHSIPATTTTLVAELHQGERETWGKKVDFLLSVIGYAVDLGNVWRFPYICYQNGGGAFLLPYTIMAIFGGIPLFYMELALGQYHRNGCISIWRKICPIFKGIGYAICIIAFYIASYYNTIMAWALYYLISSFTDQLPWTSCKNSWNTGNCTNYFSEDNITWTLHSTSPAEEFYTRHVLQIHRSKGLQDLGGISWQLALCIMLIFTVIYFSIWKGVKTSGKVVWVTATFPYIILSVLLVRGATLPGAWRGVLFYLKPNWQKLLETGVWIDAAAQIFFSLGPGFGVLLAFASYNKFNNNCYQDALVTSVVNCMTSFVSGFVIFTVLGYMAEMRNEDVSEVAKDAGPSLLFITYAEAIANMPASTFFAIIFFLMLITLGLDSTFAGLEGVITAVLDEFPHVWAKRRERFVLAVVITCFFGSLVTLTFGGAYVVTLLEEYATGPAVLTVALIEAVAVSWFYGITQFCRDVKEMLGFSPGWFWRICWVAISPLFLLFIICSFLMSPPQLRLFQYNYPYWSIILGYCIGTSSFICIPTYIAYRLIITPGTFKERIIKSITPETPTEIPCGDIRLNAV

Row | EC50 (iFluoxSnFR [2]) | EC50 (iEscSnFR [3]) | SMILES | other results
1 | 14 ± 0.4 µM |  | C[N+](C)(C)CCC(Oc1ccc(C(F)(F)F)cc1)c1ccccc1 (racemic) [N-N-dimethylfluoxetine] | IC50 (hSERT): 0.6 ± 0.2 µM; Kd (iFluoxSnFR [1]): 28.1 ± 3.7 µM
2 |  | 1.8 ± 0.2 µM | C[N+](C)(C)CCC[C@@]1(c2ccc(F)cc2)OCc2cc(C#N)ccc21 [N-methylescitalopram] | 
3 |  | 140 ± 20 µM | C[N+](C)(C)CCO [choline] | 
4 |  | 4.5 ± 0.2 µM | CN(C)CCC[C@@]1(c2ccc(F)cc2)OCc2cc(C#N)ccc21 [escitalopram] | Kd (iEscSnFR [4]): 3.4 ± 0.1 µM
5 | 63 ± 20 µM |  | NCCC(Oc1ccc(C(F)(F)F)cc1)c1ccccc1 (centres unmarked) [norfluoxetine] | 
